Measurements published in ChEMBL document CHEMBL3217729, “Sangamides, a new class of cyclophilin-inhibiting host-targeted antivirals for treatment of HCV infection” (Medchemcomm, 2012).
≈ marks a conversion by molar mass, not a printed value.

How the values were obtained:
[1] = test system: Hepatitis C virus; test: Antiviral activity against Hepatitis C virus genotype 1b I389luc-ubi-neo/NS3-3'/5.1 subgenomic replicon infected in human Huh5-2 cells after 4 days by luciferase assay; format: functional, cell-based, Hepacivirus hominis; settings: Huh-5-2, 96 h
[2] = test system: Hepatitis C virus; test: Antiviral activity against Hepatitis C virus genotype 1a H77 infected in human Huh7 cells assessed as decrease in subgenomic RNA level after 72 hrs by RT-PCR analysis; format: functional, cell-based, Hepacivirus hominis; settings: genotype 1a H77, Huh-7, 72 h
[3] = test system: Hepatitis C virus; test: Antiviral activity against Hepatitis C virus genotype 1b Con1 infected in human Huh7 cells assessed as decrease in subgenomic RNA level after 72 hrs by RT-PCR analysis; format: functional, cell-based, Hepacivirus hominis; settings: genotype 1b Con1, Huh-7, 72 h
[4] = test system: Hepatitis C virus; test: Antiviral activity against Hepatitis C virus genotype 2a JFH-1 infected in human Huh7 cells assessed as decrease in subgenomic RNA level after 72 hrs by RT-PCR analysis; format: functional, cell-based, Hepacivirus hominis; settings: genotype 2a JFH-1, Huh-7, 72 h
[5] = Cytostatic activity against human Huh5-2 cells assessed as decrease in cell proliferation after 3 days by MTS method; format: ADME, cell-based, Huh-5-2
[6] = Selectivity index, ratio of CC50 for human Huh5-2 cells to EC50 for Hepatitis C virus genotype 1b I389luc-ubi-neo/NS3-3'/5.1 subgenomic replicon infected in human Huh5-2 cells; format: toxicity, cell-based, Huh-5-2; settings: read-out: Ratio CC50/EC50
[7] = target: T1, Peptidyl-prolyl cis-trans isomerase A (Homo sapiens, UniProt P62937); test: Inhibition of recombinant GST-tagged CypA (unknown origin)/HCV Con1 NS5A-His interaction after 16 hrs by ELISA
[8] = Solubility of the compound in phosphate buffered saline at pH 7.4 after 4 hrs by LC-MS/MS analysis
[9] = Half life in human liver microsomes at 1 uM by LC-MS/MS analysis; format: ADME
[10] = Half life in human hepatocytes at 1 uM by LC-MS/MS analysis; format: ADME, cell-based, Hepatocyte
[11] = in vitro; settings: mouse, liver microsomes
Description: Half life in mouse liver microsomes at 1 uM by LC-MS/MS analysis

[12] = test system: PBMC; test: Immunosuppressive activity in human PBMC isolated from two individuals assessed as inhibition of proliferation using [3H]thymidine by mixed lymphocyte reaction assay; format: cell-based
[13] = Percentage bound in human plasma at 1 uM after 5 hrs by dialysis chamber method; format: ADME, cell-free; settings: read-out: PPB (converted)
[14] = physchem; settings: n-octanol/potassium phosphate buffer, pH 7.4
[15] = target: T1, Peptidyl-prolyl cis-trans isomerase A; test: Inhibition of PPIase activity of recombinant CypA (unknown origin) assessed as chymotrypsin-mediated N-succinyl-Ala-Ala-Pro-Phe-p-nitroanilide hydrolysis after 1 hr by spectrophotometric analysis

T1 sequence (P62937 whole entry): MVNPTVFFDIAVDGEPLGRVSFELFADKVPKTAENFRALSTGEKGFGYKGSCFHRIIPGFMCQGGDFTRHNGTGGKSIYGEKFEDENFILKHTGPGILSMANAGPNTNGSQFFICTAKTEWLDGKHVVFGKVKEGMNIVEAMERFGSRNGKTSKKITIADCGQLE

Structure (SMILES) | EC50 [1] | EC90 [1] | EC50 [2] | EC50 [3] | EC50 [4] | CC50 at 72 h [5] | selectivity ratio [6] | IC50 [7] | solubility at 4 h [8] | half-life at 1 µM [9] | half-life at 1 µM [10] | half-life at 1 µM [11] | IC50 [12] | fraction unbound at 5 h, 1 µM [13] | logD at 1 h [14] | IC50 [15]
C/C=C/C[C@@H](C)[C@@H](O)[C@H]1C(=O)N[C@@H](CC)C(=O)N(C)CC(=O)N(C)[C@@H](CC(C)C)C(=O)N[C@@H](C(C)C)C(=O)N(C)[C@@H](CC(C)C)C(=O)N[C@@H](C)C(=O)N[C@H](C)C(=O)N(C)[C@@H](CC(C)C)C(=O)N(C)[C@@H](CC(C)C)C(=O)N(C)[C@@H](C(C)C)C(=O)N1C [CYCLOSPORINE] | 306 nM | 1 µM | 198 nM | 137 nM | 455 nM | – | – | – | – | – | – | – | – | – | – | –
CC(=O)CC[C@H]1C(=O)N[C@@H](C(C)C)C(=O)N[C@@H](Cc2cccc(O)c2)C(=O)N2CCCC(N2)C(=O)O[C@H](/C(C)=C/C=C/C(=O)N(C)C)C/C=C/C=C/[C@H](O)[C@H](C)[C@H]1O (stereo partly drawn) | 349 nM | 62 µM | – | – | – | > 100 µM | > 287 | 630 nM | > 100 µM | 48 min | 128 min | 24.7 min | – | – | – | –
CC(=O)CC[C@H]1C(=O)N[C@@H](C(C)C)C(=O)N[C@@H](Cc2cccc(O)c2)C(=O)N2CCCC(N2)C(=O)O[C@H](/C(C)=C/C=C/C(=O)NC(C)C)C/C=C/C=C/[C@H](O)[C@H](C)[C@H]1O (stereo in doubt) | 560 nM | 4.6 µM | – | – | – | > 100 µM | > 179 | 380 nM | 12 µM (≈ 9.86 µg/mL) | 16.9 min | 59 min | 6.4 min | – | – | – | –
CC(=O)CC[C@H]1C(=O)N[C@@H](C(C)C)C(=O)N[C@@H](Cc2cccc(O)c2)C(=O)N2CCCC(N2)C(=O)O[C@H](/C(C)=C/C=C/C(=O)N(C)c2ccccn2)C/C=C/C=C/[C@H](O)[C@H](C)[C@H]1O (stereo partly drawn) | 2010 nM | 11.5 µM | – | – | – | > 100 µM | > 50 | 330 nM | 17 µM (≈ 14.8 µg/mL) | 19.1 min | 150 min | 9.8 min | – | – | – | –
CC(=O)CC[C@H]1C(=O)N[C@@H](C(C)C)C(=O)N[C@@H](Cc2cccc(O)c2)C(=O)N2CCCC(N2)C(=O)O[C@H](/C(C)=C/C=C/C(=O)N(CC(C)C)CC(C)C)C/C=C/C=C/[C@H](O)[C@H](C)[C@H]1O (stereo partly drawn) | 309 nM | 1.1 µM | – | – | – | 2.1 µM | 6.8 | 390 nM | – | 21.6 min | 98 min | 2.5 min | – | – | – | –
CC(=O)CC[C@H]1C(=O)N[C@@H](C(C)C)C(=O)N[C@@H](Cc2cccc(O)c2)C(=O)N2CCCC(N2)C(=O)O[C@H](/C(C)=C/C=C/C(=O)Nc2ccc(-c3ccccc3)cc2)C/C=C/C=C/[C@H](O)[C@H](C)[C@H]1O (stereo in doubt) | 208 nM | 1.15 µM | – | – | – | > 100 µM | > 481 | 520 nM | 2 µM (≈ 1.86 µg/mL) | 2.3 min | > 240 min | 1.3 min | – | – | – | –
CC(=O)CC[C@H]1C(=O)N[C@@H](C(C)C)C(=O)N[C@@H](Cc2cccc(O)c2)C(=O)N2CCCC(N2)C(=O)O[C@H](/C(C)=C/C=C/C(=O)Nc2ccncc2)C/C=C/C=C/[C@H](O)[C@H](C)[C@H]1O (stereo partly drawn) | 8060 nM | 31.9 µM | – | – | – | > 100 µM | > 12.4 | 550 nM | 15 µM (≈ 12.9 µg/mL) | 32.2 min | > 240 min | 15.2 min | – | – | – | –
CC(=O)CC[C@H]1C(=O)N[C@@H](C(C)C)C(=O)N[C@@H](Cc2cccc(O)c2)C(=O)N2CCCC(N2)C(=O)O[C@H](/C(C)=C/C=C/C(=O)N(C)C2CCCCC2)C/C=C/C=C/[C@H](O)[C@H](C)[C@H]1O (stereo partly drawn) | 148 nM | 1.9 µM | – | – | – | 66 µM | 446 | 420 nM | 48 µM (≈ 42.1 µg/mL) | 3.3 min | > 240 min | 1.9 min | – | – | – | –
CC(=O)CC[C@H]1C(=O)N[C@@H](C(C)C)C(=O)N[C@@H](Cc2cccc(O)c2)C(=O)N2CCCC(N2)C(=O)O[C@H](/C(C)=C/C=C/C(=O)N2CCOCC2)C/C=C/C=C/[C@H](O)[C@H](C)[C@H]1O (stereo partly drawn) | 1400 nM | 7.4 µM | – | – | – | – | > 72 | 330 nM | > 100 µM | 50.3 min | > 240 min | 18 min | – | – | – | –
CC(=O)CC[C@H]1C(=O)N[C@@H](C(C)C)C(=O)N[C@@H](Cc2cccc(O)c2)C(=O)N2CCCC(N2)C(=O)O[C@H](/C(C)=C/C=C/C(=O)NC2CCCCC2)C/C=C/C=C/[C@H](O)[C@H](C)[C@H]1O (stereo in doubt) | 336 nM | 4.23 µM | – | – | – | > 100 µM | > 298 | 450 nM | 29 µM (≈ 25 µg/mL) | 6.5 min | > 240 min | 2.7 min | – | – | – | –
CNC(=O)/C=C/C=C(\C)[C@@H]1C/C=C/C=C/[C@H](O)[C@H](C)[C@@H](O)[C@@H](CCC(C)=O)C(=O)N[C@@H](C(C)C)C(=O)N[C@@H](Cc2cccc(O)c2)C(=O)N2CCCC(N2)C(=O)O1 (stereo in doubt) | 8000 nM | 60.2 µM | – | – | – | > 100 µM | > 13 | 500 nM | > 100 µM | 37.2 min | 192 min | 22.5 min | – | – | – | –
CCC[C@H](NC(=O)[C@@H]1[C@H]2CCC[C@H]2CN1C(=O)[C@@H](NC(=O)[C@@H](NC(=O)c1cnccn1)C1CCCCC1)C(C)(C)C)C(=O)C(=O)NC1CC1 | 235 nM | 0.838 µM | – | 720 nM | – | > 74 µM | > 315 | – | – | – | – | – | – | – | – | –
CC[C@H]1C[C@H](C)[C@@]2(NC1=O)O[C@@H](C[C@H](O)[C@@H](C)CC/C=C/C=C(\C)[C@@H]1C/C=C/C=C/[C@H](O)[C@H](C)[C@@H](O)[C@@H](CCC(C)=O)C(=O)N[C@@H](C(C)C)C(=O)N[C@@H](Cc3cccc(O)c3)C(=O)N3CCCC(N3)C(=O)O1)[C@H](C)[C@H](O)[C@@H]2C (stereo partly drawn) | 318 nM | 5.5 µM | 301 nM | 222 nM | 247 nM | 9.1 µM | – | – | 45 µM (≈ 49.1 µg/mL) | 7.9 min | 145 min | 4 min | 215 nM | < 0.01 | > 3.7 | –
CC(=O)CC[C@H]1C(=O)N[C@@H](C(C)C)C(=O)N[C@@H](Cc2cccc(O)c2)C(=O)N2CCCC(N2)C(=O)O[C@H](/C(C)=C/C=C/C(=O)Nc2ccccn2)C/C=C/C=C/[C@H](O)[C@H](C)[C@H]1O (stereo in doubt) | 167 nM | 0.74 µM | – | – | – | 40 µM | 240 | 390 nM | 61 µM (≈ 52.3 µg/mL) | 4.4 min | 95 min | 8.8 min | – | – | – | 4.1 nM
CC(=O)CC[C@H]1C(=O)N[C@@H](C(C)C)C(=O)N[C@@H](Cc2cccc(O)c2)C(=O)N2CCCC(N2)C(=O)O[C@H](/C(C)=C/C=C/C(=O)Nc2cccnc2)C/C=C/C=C/[C@H](O)[C@H](C)[C@H]1O (stereo in doubt) | 2480 nM | 5.41 µM | – | – | – | > 100 µM | > 40 | 460 nM | 18 µM (≈ 15.4 µg/mL) | 7.5 min | 116 min | 3.3 min | – | – | – | –
C/C=C/C[C@@H](C)[C@@H](O)[C@H]1C(=O)N[C@@H](CC)C(=O)N(C)[C@H](C)C(=O)N(CC)[C@@H](C(C)C)C(=O)N[C@@H](C(C)C)C(=O)N(C)[C@@H](CC(C)C)C(=O)N[C@@H](C)C(=O)N[C@H](C)C(=O)N(C)[C@@H](CC(C)C)C(=O)N(C)[C@@H](CC(C)C)C(=O)N(C)[C@@H](C(C)C)C(=O)N1C [ALISPORIVIR] | – | – | – | – | – | – | – | – | – | – | – | – | 840 nM | – | – | –
C=CCNC(=O)/C=C/C=C(\C)[C@@H]1C/C=C/C=C/[C@H](O)[C@H](C)[C@@H](O)[C@@H](CCC(C)=O)C(=O)N[C@@H](C(C)C)C(=O)N[C@@H](Cc2cccc(O)c2)C(=O)N2CCCC(N2)C(=O)O1 (stereo in doubt) | 1600 nM | 8.5 µM | – | – | – | 48 µM | 30 | 360 nM | – | 23.9 min | 139 min | 10.6 min | – | – | – | –
CCN(CC)C(=O)/C=C/C=C(\C)[C@@H]1C/C=C/C=C/[C@H](O)[C@H](C)[C@@H](O)[C@@H](CCC(C)=O)C(=O)N[C@@H](C(C)C)C(=O)N[C@@H](Cc2cccc(O)c2)C(=O)N2CCCC(N2)C(=O)O1 (stereo partly drawn) | 204 nM | 1.2 µM | – | – | – | > 100 µM | > 490 | 350 nM | > 100 µM | 16.8 min | 94 min | 8.4 min | – | – | – | –
